Source: ChEMBL document CHEMBL4145457, “Design, synthesis and biological evaluation of novel pyridine-thiazolidinone derivatives as anticancer agents: Targeting human carbonic anhydrase IX” (Eur J Med Chem, 2018)

How the values were obtained:
Carbonic anhydrase 9 [1] = molecular target: T1, Carbonic anhydrase 9 (Homo sapiens, UniProt Q16790); test: Inhibition of human carbonic anhydrase 9 using 4-NPA as substrate after 3 mins by spectrophotometric analysis
HEK293 = test: Cytotoxicity against human HEK293 cells after 48 hrs by MTT assay; format: cell-based; details: HEK293, 48 h
HepG2 = test: cells; details: Homo sapiens, HepG2, 48 h
Description: Cytotoxicity against human HepG2 cells after 48 hrs by MTT assay

[2] = Ratio of IC50 for HEK293 cells to IC50 for human MCF7 cells; format: toxicity; details: HEK293 cells versus MCF7 cells, read-out: Ratio IC50
[3] = Ratio of IC50 for HEK293 cells to IC50 for human HepG2 cells; format: toxicity; details: HEK293 cells versus HepG2 cells, read-out: Ratio IC50
MCF7 = test: Cytotoxicity against human MCF7 cells after 48 hrs by MTT assay; format: functional, cell-based; details: MCF7, 48 h
Carbonic anhydrase 2 = Carbonic anhydrase 2 (Homo sapiens, UniProt P00918); test: Inhibition of human carbonic anhydrase 2 using 4-NPA as substrate after 3 mins by spectrophotometric analysis
Carbonic anhydrase 9 [4] = molecular target: T1, Carbonic anhydrase 9; test: Binding affinity to human carbonic anhydrase 9 by spectrofluorimetric analysis

| IC50 (Carbonic anhydrase 9 [1]) [µM] | IC50 (HepG2) [µM] | IC50 (Carbonic anhydrase 2) [µM] | IC50 (Carbonic anhydrase 9 [4]) [µM] | SMILES | IC50 (HEK293) [µM] | selectivity ratio [2] | selectivity ratio [3] | IC50 (MCF7) [µM] |
| --- | --- | --- | --- | --- | --- | --- | --- | --- |
| 17.9 | 19.3 |  |  | S=C(NCc1ccncc1)Nc1ccccc1 | 47.2 | 1.2 | 2.4 | 37.3 |
| 63.1 | 32.3 |  |  | CC(C)c1ccc(/C=C2/S/C(=N/c3ccccc3)N(Cc3ccncc3)C2=O)cc1 | 137 | 2.5 | 4.2 | 53.3 |
| 60.9 | 28.6 |  |  | COc1cc(/C=C2/S/C(=N/c3ccccc3)N(Cc3ccncc3)C2=O)ccc1O | 67.4 | 2.4 | 2.3 | 28 |
| 50.9 | 25.2 |  |  | O=C1/C(=C\c2ccccc2)S/C(=N/c2ccccc2)N1Cc1ccncc1 | 64.7 | 2.4 | 2.5 | 26.4 |
| 10 | 23.1 |  |  | Cc1ccc(/C=C2/S/C(=N/c3ccccc3)N(Cc3ccncc3)C2=O)s1 | 146 | 5.1 | 6.3 | 28.7 |
| 43.5 | 28.9 |  |  | O=C1/C(=C\c2cccc(Cl)c2)S/C(=N/c2ccccc2)N1Cc1ccncc1 | 71.8 | 2.4 | 2.4 | 29.8 |
| 40.2 | 28.8 |  |  | O=C1/C(=C\c2ccc(Cl)cc2)S/C(=N/c2ccccc2)N1Cc1ccncc1 | 42.3 | 1.1 | 1.4 | 54.9 |
| 16.7 | 35.8 |  |  | COc1ccc(OC)c(/C=C2/S/C(=N/c3ccccc3)N(Cc3ccncc3)C2=O)c1 | 80.1 | 2.1 | 2.2 | 37 |
| 6.72 | 11.8 |  |  | O=C1/C(=C\c2ccc(O)cc2)S/C(=N/c2ccccc2)N1Cc1ccncc1 | 142 | 7.5 | 12 | 18.9 |
| 32.9 | 52.6 |  |  | CN(C)c1ccc(/C=C2/S/C(=N/c3ccccc3)N(Cc3ccncc3)C2=O)cc1 | 122 | 1.6 | 2.3 | 76.3 |
| 20.9 | 28.9 |  |  | COc1ccc(/C=C2/S/C(=N/c3ccccc3)N(Cc3ccncc3)C2=O)cc1OC | 171 | 2.1 | 5.9 | 80.7 |
| 58.4 | 24.4 |  |  | O=C1/C(=C\c2ccc3c(c2)OCO3)S/C(=N/c2ccccc2)N1Cc1ccncc1 | 64.8 | 1.8 | 2.6 | 35.2 |
| 26.1 | 26 |  |  | O=C1CS/C(=N/c2ccccc2)N1Cc1ccncc1 | 99.5 | 1.5 | 3.8 | 65.8 |
| 10.8 | 17.6 |  |  | O=C1/C(=C\c2cccc(O)c2)S/C(=N/c2ccccc2)N1Cc1ccncc1 | 150 | 3.4 | 8.5 | 43.6 |
| 1.84 | 16.2 | 27.2 | 2.32 | O=C1/C(=C\c2ccc(O)c(O)c2)S/C(=N/c2ccccc2)N1Cc1ccncc1 | 230 | 18.5 | 14.2 | 12.4 |
| 40.4 | 19.1 |  |  | COc1ccc(/C=C2/S/C(=N/c3ccccc3)N(Cc3ccncc3)C2=O)cc1 | 47.9 | 1.5 | 2.5 | 31.5 |
| 38.4 | 20.4 |  |  | CCOc1cc(/C=C2/S/C(=N/c3ccccc3)N(Cc3ccncc3)C2=O)ccc1O | 46.5 | 2.3 | 2.2 | 20.1 |
| 6.64 | 31 |  |  | O=C1/C(=C\c2ccccn2)S/C(=N/c2ccccc2)N1Cc1ccncc1 | 161 | 7.6 | 5.2 | 21.1 |
| 57.3 | 19.7 |  |  | Cc1ccc(/C=C2/S/C(=N/c3ccccc3)N(Cc3ccncc3)C2=O)cc1 | 49.5 | 1.3 | 2.5 | 36.9 |
| 1.61 | 18.9 | 14.4 | 11.2 | O=C1/C(=C\c2ccc([N+](=O)[O-])cc2)S/C(=N/c2ccccc2)N1Cc1ccncc1 | 250 | 19.2 | 13.2 | 13 |
|  |  |  |  | COc1cccc2c1C(=O)c1c(O)c3c(c(O)c1C2=O)C[C@@](O)(C(=O)CO)C[C@@H]3O[C@H]1C[C@H](N)[C@H](O)[C@H](C)O1 [DOXORUBICIN] | 148 |  |  |  |
